Test results reported in PubChem BioAssay AID248 (DTP/NCI, 2004).
Several values for one entry are separate records, joined by “and”; a condition that tells them apart may be missing. Identical values can stand only once. Inconclusive results and toxic doses are left out. No stated cut-off is given here; in the data, active means T/C of 150% or more; inactive means T/C below 125%.

System: L1210 leukemia ip in BDF1 mice, survival T/C
Experiment: NCI In Vivo Anticancer Drug Screen. Data for tumor model L1210 Leukemia (intraperitoneal) in B6D2F1 (BDF1) mice
Details: endpoint: mean survival time, higher = longer survival
Procedure, shortened: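 Ratio derived from survival: compound-dosed mice over vehicle-dosed mice, all bearing a transplantable tumor.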

[1] = dose: 100.0 mg/kg/injection, schedule: Q01DX009 (ip), vehicle: saline
[2] = dose: 100.0 mg/kg/injection, schedule: Q04DX003 (ip), vehicle: saline
[3] = dose: 200.0 mg/kg/injection, schedule: Q04DX003 (ip), vehicle: saline
[4] = dose: 400.0 mg/kg/injection, schedule: Q01DX009 (ip), vehicle: saline
[5] = dose: 400.0 mg/kg/injection, schedule: Q04DX003 (ip), vehicle: saline
[6] = dose: 25.0 mg/kg/injection, schedule: Q04DX003 (ip), vehicle: Klucel (hydroxypropylcellulose) (HPC)
[7] = dose: 50.0 mg/kg/injection, schedule: Q04DX003 (ip), vehicle: Klucel (hydroxypropylcellulose) (HPC)
[8] = dose: 100.0 mg/kg/injection, schedule: Q04DX003 (ip), vehicle: Klucel (hydroxypropylcellulose) (HPC)
[9] = dose: 50.0 mg/kg/injection, schedule: Q01DX001 (ip), vehicle: carboxymethylcellulose (CMC)
[10] = dose: 100.0 mg/kg/injection, schedule: Q01DX009 (ip), vehicle: saline with Tween-80
[11] = dose: 200.0 mg/kg/injection, schedule: Q01DX009 (ip), vehicle: saline with Tween-80
[12] = dose: 400.0 mg/kg/injection, schedule: Q01DX009 (ip), vehicle: saline with Tween-80
[13] = dose: 25.0 mg/kg/injection, schedule: Q01DX009 (ip), vehicle: Klucel (hydroxypropylcellulose) (HPC)
[14] = dose: 50.0 mg/kg/injection, schedule: Q01DX009 (ip), vehicle: Klucel (hydroxypropylcellulose) (HPC)

Measured: T/C

OC(c1ccccc1)(c1ccccc1)C1CCCCC1=C(c1ccccc1)c1ccccc1 (stereo unspecified)
inactive: dose: 100.0 mg/kg/injection, schedule: Q01DX001 (ip), vehicle: saline 88 % of control | [1] 86 % of control | [2] 96 % of control | dose: 200.0 mg/kg/injection, schedule: Q01DX001 (ip), vehicle: saline 93 % of control | [3] 94 % of control | dose: 400.0 mg/kg/injection, schedule: Q01DX001 (ip), vehicle: saline 89 % of control | [4] 86 % of control | [5] 96 % of control

O=c1ccn(CCCc2ccccc2)c(=O)[nH]1
inactive: dose: 100.0 mg/kg/injection, schedule: Q01DX009 (ip), vehicle: Klucel (hydroxypropylcellulose) (HPC) 94 % of control | dose: 200.0 mg/kg/injection, schedule: Q01DX009 (ip), vehicle: Klucel (hydroxypropylcellulose) (HPC) 109 % of control | dose: 400.0 mg/kg/injection, schedule: Q01DX009 (ip), vehicle: Klucel (hydroxypropylcellulose) (HPC) 94 % of control

CCOC(=O)NCCCNC(=O)OCC
inactive: [2] 95 % of control | [3] 103 % of control | [5] 97 % of control

N#CCCCOc1ccc(Cl)cc1
inactive: [6] 104 % of control | [7] 104 % of control | [8] 98 % of control

NC(=O)CC(N)c1nn[nH]n1 (stereo unspecified)
inactive: [1] 89 % of control | [2] 97 % of control | dose: 200.0 mg/kg/injection, schedule: Q01DX009 (ip), vehicle: saline 98 % of control | [3] 100 % of control | [4] 102 % of control | [5] 103 % of control

c1ccc2c(c1)ccc1c[n+]3c(ccc4ccccc43)cc12
inactive: dose: 25.0 mg/kg/injection, schedule: Q01DX001 (ip), vehicle: carboxymethylcellulose (CMC) 104 % of control | [9] 108 % of control

Cc1cccc(C)c1NC(=O)OCCOc1ccc(Br)cc1
inactive: [10] 95 % of control | [11] 92 % of control | [12] 92 % of control

Cc1ccc(-c2ccccc2)n1-c1ccccc1O
inactive: dose: 50.0 mg/kg/injection, schedule: Q01DX001 (ip), vehicle: other 104 % of control | dose: 100.0 mg/kg/injection, schedule: Q01DX001 (ip), vehicle: other 102 % of control | dose: 200.0 mg/kg/injection, schedule: Q01DX001 (ip), vehicle: other 96 % of control | dose: 400.0 mg/kg/injection, schedule: Q01DX001 (ip), vehicle: other 98 % of control

CC(=O)Nc1ccc(C(=O)CCl)cc1
inactive: [13] 95 % of control | [6] 93 % of control and 101 % of control | [9] 101 % of control | [14] 88 % of control | [7] 105 % of control | [8] 110 % of control

NC(N)=Nc1ccc(C(=O)Oc2ccc(OC(=O)c3cccc(N=C(N)N)c3)cc2)cc1
inactive: dose: 50.0 mg/kg/injection, schedule: Q01DX009 (ip), vehicle: water 96 % of control | dose: 50.0 mg/kg/injection, schedule: Q04DX003 (ip), vehicle: water 90 % of control | dose: 100.0 mg/kg/injection, schedule: Q01DX009 (ip), vehicle: water 98 % of control | dose: 100.0 mg/kg/injection, schedule: Q04DX003 (ip), vehicle: water 93 % of control and 97 % of control | dose: 200.0 mg/kg/injection, schedule: Q01DX009 (ip), vehicle: water 92 % of control | dose: 200.0 mg/kg/injection, schedule: Q04DX003 (ip), vehicle: water 98 % of control and 100 % of control | dose: 400.0 mg/kg/injection, schedule: Q04DX003 (ip), vehicle: water 93 % of control and 95 % of control

CC(C)(CO)NC(=O)COc1ccc(Cl)cc1Cl
inactive: dose: 100.0 mg/kg/injection, schedule: Q04DX002 (ip), vehicle: saline with Tween-80 102 % of control | dose: 200.0 mg/kg/injection, schedule: Q04DX002 (ip), vehicle: saline with Tween-80 94 % of control | dose: 400.0 mg/kg/injection, schedule: Q04DX002 (ip), vehicle: saline with Tween-80 94 % of control

COC1=Nc2ccccc2/C=C\c2ccccc21
inactive: dose: 100.0 mg/kg/injection, schedule: Q04DX002 (ip), vehicle: carboxymethylcellulose (CMC) 96 % of control | dose: 200.0 mg/kg/injection, schedule: Q04DX002 (ip), vehicle: carboxymethylcellulose (CMC) 89 % of control | dose: 400.0 mg/kg/injection, schedule: Q04DX002 (ip), vehicle: carboxymethylcellulose (CMC) 89 % of control

CN1CCc2[nH]c3ccccc3c2C1
inactive: dose: 75.0 mg/kg/injection, schedule: Q04DX003 (ip), vehicle: Klucel (hydroxypropylcellulose) (HPC) 93 % of control | dose: 150.0 mg/kg/injection, schedule: Q04DX003 (ip), vehicle: Klucel (hydroxypropylcellulose) (HPC) 93 % of control

CCOC(=O)c1ccc(Cl)cc1
inactive: [10] 88 % of control | [8] 97 % of control | dose: 200.0 mg/kg/injection, schedule: Q04DX003 (ip), vehicle: Klucel (hydroxypropylcellulose) (HPC) 102 % of control | dose: 400.0 mg/kg/injection, schedule: Q04DX003 (ip), vehicle: Klucel (hydroxypropylcellulose) (HPC) 102 % of control

[N-]=[N+]=C1C=CC=C1C(=O)O
inactive: dose: 12.5 mg/kg/injection, schedule: Q01DX009 (ip), vehicle: Klucel (hydroxypropylcellulose) (HPC) 98 % of control | [13] 103 % of control | [14] 97 % of control | dose: 100.0 mg/kg/injection, schedule: Q04DX003 (ip), vehicle: acetone 94 % of control | dose: 200.0 mg/kg/injection, schedule: Q04DX003 (ip), vehicle: acetone 93 % of control | dose: 400.0 mg/kg/injection, schedule: Q04DX003 (ip), vehicle: acetone 91 % of control

O=C(O)c1cccn1-c1ccccc1
inactive: dose: 100.0 mg/kg/injection, schedule: Q01DX001 (ip), vehicle: saline with Tween-80 102 % of control | dose: 100.0 mg/kg/injection, schedule: Q04DX003 (ip), vehicle: other 96 % of control | dose: 200.0 mg/kg/injection, schedule: Q01DX001 (ip), vehicle: saline with Tween-80 103 % of control | dose: 200.0 mg/kg/injection, schedule: Q04DX003 (ip), vehicle: other 101 % of control | dose: 400.0 mg/kg/injection, schedule: Q01DX001 (ip), vehicle: saline with Tween-80 96 % of control | dose: 400.0 mg/kg/injection, schedule: Q04DX003 (ip), vehicle: other 89 % of control

CCOC(=O)CNC(=O)NCc1ccccc1
inactive: [10] 106 % of control | [11] 102 % of control | [12] 105 % of control

CCOC(=O)N(C(=S)Nc1ccccc1)c1nc(C)cs1
inactive: dose: 100.0 mg/kg/injection, schedule: Q01DX001 (ip), vehicle: gum acacia 100 % of control | dose: 200.0 mg/kg/injection, schedule: Q01DX001 (ip), vehicle: gum acacia 111 % of control | dose: 400.0 mg/kg/injection, schedule: Q01DX001 (ip), vehicle: gum acacia 97 % of control

c1ccc(OCCOCCOc2ccccc2)cc1
inactive: dose: 75.0 mg/kg/injection, schedule: Q01DX009 (ip), vehicle: Klucel (hydroxypropylcellulose) (HPC) 96 % of control | dose: 100.0 mg/kg/injection, schedule: Q04DX002 (ip), vehicle: Klucel (hydroxypropylcellulose) (HPC) 98 % of control | dose: 150.0 mg/kg/injection, schedule: Q01DX009 (ip), vehicle: Klucel (hydroxypropylcellulose) (HPC) 114 % of control | dose: 200.0 mg/kg/injection, schedule: Q04DX002 (ip), vehicle: Klucel (hydroxypropylcellulose) (HPC) 102 % of control | dose: 300.0 mg/kg/injection, schedule: Q01DX009 (ip), vehicle: Klucel (hydroxypropylcellulose) (HPC) 96 % of control | dose: 400.0 mg/kg/injection, schedule: Q04DX002 (ip), vehicle: Klucel (hydroxypropylcellulose) (HPC) 91 % of control
